Experimental data taken from ChEMBL document CHEMBL1697781, “Assessment of the health effects of chemicals in humans: II. Construction of an adverse effects database for QSAR modeling” (Curr Drug Discov Technol, 2004).

Key:
Settings in all cases: human; call rule not given here
[1] = tested on: Hepatotoxicity; assay: FDA HLAED, liver enzyme composite activity
[2] = tested on: Hepatotoxicity; assay: FDA HLAED, serum glutamic oxaloacetic transaminase (SGOT) increase
[3] = tested on: Hepatotoxicity; assay: FDA HLAED, alkaline phosphatase increase
[4] = tested on: Hepatotoxicity; assay: FDA HLAED, serum glutamic pyruvic transaminase (SGPT) increase
[5] = tested on: Hepatotoxicity; assay: FDA HLAED, gamma-glutamyl transferase (GGT) increase
[6] = tested on: Hepatotoxicity; assay: FDA HLAED, lactate dehydrogenase (LDH) increase
Wherever GGT Increase - Index Value is given: reference of the scale not given here.
Wherever LDH Increase - Index Value is given: reference of the scale not given here.

Structure (SMILES) | Composite Activity - Active [1] | Composite Activity - Marginal [1] | Composite Activity - Score [1] | SGOT Increase - Activity Score [2] | SGOT Increase - Index Value [2] | SGOT Increase - Number of Reports [2] | Alkaline Phosphatase Increase - Activity Score [3] | Alkaline Phosphatase Increase - Index Value [3] | Alkaline Phosphatase Increase - Number of Reports [3] | SGPT Increase - Activity Score [4] | SGPT Increase - Index Value [4] | SGPT Increase - Number of Reports [4] | GGT Increase - Activity Score [5] | GGT Increase - Index Value [5] | GGT Increase - Number of Reports [5] | LDH Increase - Activity Score [6] | LDH Increase - Index Value [6] | LDH Increase - Number of Reports [6]
COc1ccccc1OCCNCC(O)COc1cccc2[nH]c3ccccc3c12 (centres undefined) [CARVEDILOL] | 0 | 0 | Inactive | Inactive | 0 | < 4 | Inactive | 0 | < 4 | Inactive | 0 | < 4 | Inactive | 0 | < 4 | Inactive | 0 | < 4
N[C@@H](C(=O)N[C@@H]1C(=O)N2C(C(=O)O)=C(Cl)CS[C@H]12)c1ccccc1 [CEFACLOR ANHYDROUS] | 1 | 1 | Inactive | Active | 6 | >= 4 | Marginally Active | 3.4 | >= 4 | Inactive | 2.9 | >= 4 | Inactive | 0 | < 4 | Inactive | 0.4 | >= 4
CC1=C(C(=O)O)N2C(=O)[C@@H](NC(=O)[C@H](N)c3ccc(O)cc3)[C@H]2SC1 [CEFADROXIL] | 0 | 0 | Inactive | Inactive | 0 | < 4 | Inactive | 0 | < 4 | Inactive | 0 | < 4 | Inactive | 0 | < 4 | Inactive | 0 | < 4
Cn1nnnc1SCC1=C(C(=O)[O-])N2C(=O)[C@@H](NC(=O)[C@H](OC=O)c3ccccc3)[C@H]2SC1.[Na+] [CEFAMANDOLE NAFATE] | 0 | 0 | Inactive | Inactive | 0 | < 4 | Inactive | 0 | < 4 | Inactive | 0 | < 4 | Inactive | 0 | < 4 | Inactive | 0 | < 4
Cn1nnnc1SCC1=C(C(=O)O)N2C(=O)[C@@H](NC(=O)[C@H](O)c3ccccc3)[C@H]2SC1 [CEFAMANDOLE] | 0 | 0 | Inactive | Inactive | 0 | < 4 | Inactive | 0 | < 4 | Inactive | 0 | < 4 | Inactive | 0 | < 4 | Inactive | 0 | < 4
C=CC1=C(C(=O)O)N2C(=O)[C@@H](NC(=O)/C(=N\OCC(=O)O)c3csc(N)n3)[C@H]2SC1 [CEFIXIME] | 0 | 0 | Inactive | Inactive | 0.4 | >= 4 | Inactive | 13.7 | < 4 | Inactive | 0.4 | >= 4 | Inactive | 0 | < 4 | Inactive | 0.1 | < 4
CO[C@@]1(NC(=O)CSCC#N)C(=O)N2C(C(=O)O)=C(CSc3nnnn3C)CS[C@@H]21 [CEFMETAZOLE] | 0 | 0 | Inactive | Inactive | 0 | < 4 | Inactive | 0.1 | < 4 | Inactive | 0 | < 4 | Inactive | 0 | < 4 | Inactive | 25.5 | < 4
O=C(O)C1=C(CSc2nnnn2CS(=O)(=O)O)CS[C@@H]2[C@H](NC(=O)[C@H](O)c3ccccc3)C(=O)N12 [CEFONICID] | 0 | 0 | Inactive | Inactive | 0 | < 4 | Inactive | 12.7 | < 4 | Inactive | 0 | < 4 | Inactive | 0 | < 4 | Inactive | 0 | < 4
